Where two headings read alike, the source gives them in different places.

Series [1] can be described thus: log P determination by HPLC on reversed-phase column (EEC Directive 79/831 Annex V.A8). It counts as physicochemical. As to the method: The log P values given in the preparation examples and tables above are determined in accordance with EEC Directive 79/831 Annex V.A8 by HPLC (High Performance Liquid Chromatography) on a reversed-phase column (C 18). Temperature: 43° C. In the acidic range, determination is carried out at pH 2.3 using the mobile phases 0.1% aqueous phosphoric acid and acetonitrile; linear gradient from 10% acetonitrile to 90% acetonitrile (in the tables marked with a)). In the neutral range, determination is carried out at pH 7.5 using the mobile phases 0.01 molar aqueous phosphate buffer solution and acetonitrile; linear gradient from 10% acetonitrile to 90% acetonitrile (in the tables marked with b)). Calibration is carried out using unbranched alkan-2-ones (of 3 to 16 carbon atoms) with known lopP values (determination of the log P values by the retention times using linear interpolation between two successive alkanones).

The subject of series [2] is caterpillars of the cotton bollworm (Heliothis armigera). As to the kind of experiment: Heliothis armigera test. As to conditions: Helicoverpa armigera, 168 h; 100 ppm active compound; soybean shoots (Glycine max) dipped; after 7 d; read-out: Kill rate in % after 7 d. It counts as in vivo. How it is done: (§1) Heliothis armigera Test • Solvent: 7 parts by weight of dimethylformamide • Emulsifier: 2 parts by weight of alkylaryl polyglycol ether To produce a suitable preparation of active compound, 1 part by weight of active compound is mixed with the stated amounts of solvent and emulsifier, and the concentrate is diluted with emulsifier-containing water to the desired concentration. Soybean shoots (Glycine max) are treated by being dipped into the preparation of active compound of the desired concentration and are populated with caterpillars of the cotton bollworm (Heliothis armigera) while the leaves are still moist. After the desired period of time, the kill in % is determined. 100% means that all caterpillars have been killed; 0% means that none of the caterpillars have been killed. In this test, for example, the following compounds of the preparation examples show good activity: […]

Series [3] relates to larvae of the mustard beetle (Phaedon cochleariae). As to the kind of experiment: Phaedon larvae test. It counts as in vivo. To be noted: 168 h, 100 ppm active compound, cabbage leaves (Brassica oleracea) dipped, after 7 d, read-out: Kill rate in % after 7 d. As to the method: as §1, with “Phaedon Larvae Test” for “Heliothis armigera Test”, “concentration. Cabbage leaves (Brassica oleracea)” for “concentration. Soybean shoots (Glycine max)”, “with larvae” for “with caterpillars”, “the mustard beetle (Phaedon cochleariae)” for “the cotton bollworm (Heliothis armigera)”, “all beetle larvae” for “all caterpillars”, “the beetle larvae” for “the caterpillars”

Series [4] relates to caterpillars of the army worm (Spodoptera frugiperda). As to the kind of experiment: Spodoptera frugiperda test. In kind it is in vivo. As to conditions: 168 h, 100 ppm active compound, cabbage leaves (Brassica oleracea) dipped, after 7 d, read-out: Kill rate in % after 7 d. How it is done:
as §1, with “Spodoptera frugiperda” for “Heliothis armigera”, “Cabbage leaves (Brassica oleracea)” for “Soybean shoots (Glycine max)”, “army worm (Spodoptera frugiperda)” for “cotton bollworm (Heliothis armigera)”

In series [5] the test system is greenhouse red spider mite (Tetranychus urticae). As to the kind of experiment: Tetranychus test (OP-resistant/dip treatment). In kind it is in vivo. To be noted: 168 h, 100 ppm active compound, infested bean plants (Phaseolus vulgaris) dipped, OP-resistant, after 7 d, read-out: Kill rate in % after 7 d. As to the method:
Tetranychus Test (OP-Resistant/Dip Treatment)
• Solvent: 7 parts by weight of dimethylformamide • Emulsifier: 2 parts by weight of alkylaryl polyglycol ether
To produce a suitable preparation of active compound, 1 part by weight of active compound is mixed with the stated amounts of solvent and emulsifier, and the concentrate is diluted with emulsifier-containing water to the desired concentration.
Bean plants (Phaseolus vulgaris) which are heavily infested by all stages of the greenhouse red spider mite (Tetranychus urticae) are treated by being dipped into a preparation of active compound of the desired concentration.
After the desired period of time, the activity in % is determined. 100% means that all spider mites have been killed; 0% means that none of the spider mites have been killed.
In this test, for example, the following compounds of the preparation examples show good efficacy: […]

Series [6] deals with caterpillars of the diamondback moth (Plutella xylostella). As to the kind of experiment: Plutella test. It counts as in vivo. As to conditions: 100 ppm active compound, cabbage leaves (Brassica oleracea) dipped. How it is done:
as §1, with “Plutella” for “Heliothis armigera”, “Cabbage leaves (Brassica oleracea)” for “Soybean shoots (Glycine max)”, “diamondback moth (Plutella xylostella)” for “cotton bollworm (Heliothis armigera)”

The mark [7] stands for this setting: reversed-phase C18 HPLC column; acidic range, pH 2.3, 0.1% aqueous phosphoric acid/acetonitrile, 43° C.; marked a) in tables, read-out: log P (pH 2.3).
[8] abbreviates: reversed-phase C18 HPLC column; neutral range, pH 7.5, 0.01 molar aqueous phosphate buffer/acetonitrile, 43° C.; marked b) in tables, read-out: log P (pH 7.5).

For the compound `CCOC(=O)[C@H]1CC(c2c(F)cccc2F)=N[C@H]1c1ccc(-c2ccc(-c3noc(C(F)(F)F)n3)cc2)cc1` (racemic) [Example 8], the chromatographic logP in series [1] (setting [7]) is 5.18. In addition, the pest or weed control at 100 ppm in series [2] amounted to 100%; in series [3] it was 100%; in series [4], 100%; in series [5], 95%.

For the compound `CCOC(=O)[C@H]1CC(c2c(F)cccc2F)=N[C@H]1c1ccc(-c2ccc(-c3noc(C(C)(C)C)n3)cc2)cc1` (racemic) [Example 9], in series [1] (setting [7]), the chromatographic logP turned out to be 5.29. For the same compound, the pest or weed control at 100 ppm in series [2], in series [3] and in series [4] was 100% each time.

Regarding `CCOC(=O)[C@H]1CC(c2c(F)cccc2F)=N[C@H]1c1ccc(-c2ccc(-c3nc(C(C)(C)C)no3)cc2)cc1` (racemic) [Example 10], the chromatographic logP in series [1] (setting [7]) came out at 5.39. For the same compound, the pest or weed control at 100 ppm in series [2], in series [3] and in series [4] was 100% throughout.

In the case of `Cc1ccccc1C1=NC(c2ccc(Br)cc2)CC1` (stereo not drawn) [2-(4-bromophenyl)-5-(2-methylphenyl)-3,4-dihydro-2H-pyrrole], the values for the chromatographic logP in series [1] (setting [7]) and in series [1] (setting [8]) were 1.82 and 4.48, respectively.

Take `O=C(/C=C/c1ccc(Br)cc1F)c1c(F)cccc1F` [(2E)-3-(4-bromo-2-fluorophenyl)-1-(2,6-difluoro-phenyl)-2-propen-1-one]: the chromatographic logP in series [1] (setting [7]) was determined as 4.18.

As for `CCOc1ccc(-c2ccc(-c3ccc(C4CCC(c5c(F)cccc5F)=N4)cc3)cc2)s1` (stereo not drawn) [Example 1, 5-(2,6-difluorophenyl)-2-[4′-(5-ethoxy-2-thienyl)-1,1′-biphenyl-4-yl]-3,4-dihydro-2H-pyrrole], the chromatographic logP in series [1] (setting [7]) worked out at 4.88; in series [1] (setting [8]), 5.84. The pest or weed control at 100 ppm came out at 100% in series [2], 100% in series [3], 100% in series [4] and 95% in series [5]. For the same compound, in series [6], the “Kill rate in % after 7 d” value came out at 100%.

For `COc1ccc(-c2ccc(-c3ccc(C4CCC(c5c(F)cccc5F)=N4)cc3)cc2)s1` (stereo not drawn) [Example 2, 5-(2,6-difluorophenyl)-2-[4′-(5-methoxy-2-thienyl)-1,1′-biphenyl-4-yl]-3,4-dihydro-2H-pyrrole], in series [1] (setting [7]), the chromatographic logP was determined as 4.35. Besides, the pest or weed control at 100 ppm in series [2], in series [3] and in series [4] was 100% throughout.

As to `CC(C)Oc1ccc(-c2ccc(-c3ccc(C4CCC(c5c(F)cccc5F)=N4)cc3)cc2)s1` (stereo not drawn) [Example 3, 5-(2,6-difluorophenyl)-2-[4′-(5-isopropoxy-2-thienyl)-1,1′-biphenyl-4-yl]-3,4-dihydro-2H-pyrrole], in series [1] (setting [7]), the chromatographic logP is 5.2. Also, the pest or weed control at 100 ppm in series [2], in series [3] and in series [4] was 100% throughout.

`Cc1ccccc1C1=NC(c2ccc(-c3ccc(-c4noc(C(F)(F)F)n4)cc3)cc2)CC1` (stereo not drawn) [Example 4, 3-{4′-[5-(2-methylphenyl)-3,4-dihydro-2H-pyrrol-2-yl]-1,1′-biphenyl-4-yl}-5-(trifluoromethyl)-1,2,4-oxadiazole]: the chromatographic logP in series [1] (setting [7]) worked out at 3.32. For the same compound, the pest or weed control at 100 ppm in series [2] amounted to 100%; in series [3], 100%; in series [4] it was 100%; in series [5] it was 95%.

In the case of `Cc1ccccc1C1=NC(c2ccc(-c3ccc(-c4noc(C(C)(C)C)n4)cc3)cc2)CC1` (stereo not drawn) [Example 11], in series [1] (setting [7]), the chromatographic logP worked out at 3.99. Also, the pest or weed control at 100 ppm in series [2] came out at 100%; in series [3] it was 100%; in series [4], 100%; in series [5], 98%.

As for `Cc1ccccc1C1=NC(c2ccc(-c3ccc(-c4nc(C(C)(C)C)no4)cc3)cc2)CC1` (stereo not drawn) [Example 12], the chromatographic logP in series [1] (setting [7]) was found to be 4.18. Besides, the pest or weed control at 100 ppm in series [2] was 100%; in series [3], 100%; in series [4] it was 100%; in series [5] it was 98%.

As to `N#Cc1cnn(-c2ccc(-c3ccc(C4CCC(c5c(F)cccc5F)=N4)cc3)cc2)c1` (stereo not drawn) [Example 18], the chromatographic logP turned out to be 3.02 in series [1] (setting [7]) and 4.03 in series [1] (setting [8]). The pest or weed control at 100 ppm in series [3] was 100%; in series [4], 100%; in series [5] it was 90%.

As to `Cc1nc(-c2ccc(-c3ccc(C4CCC(c5c(F)cccc5F)=N4)cc3)cc2)cs1` (stereo not drawn) [Example 22], the chromatographic logP turned out to be 3.35 in series [1] (setting [7]) and 4.68 in series [1] (setting [8]). The pest or weed control at 100 ppm in series [2] came to 100%; in series [4], 100%; in series [5], 90%. In series [6], the “Kill rate in % after 7 d” value is recorded as 100%.

Consider `Cc1ccccc1C1=NC(c2ccc(B3OC(C)(C)C(C)(C)O3)cc2)CC1` (stereo not drawn) [II-1, 5-(2-methylphenyl)-2-[4-(4,4,5,5-tetramethyl-1,3,2-dioxaborolan-2-yl)phenyl]-3,4-dihydro-2H-pyrrole], for which the chromatographic logP stood at 2.25 in series [1] (setting [7]) and 4.98 in series [1] (setting [8]).

As to `CC1(C)OB(c2ccc(C3CCC(c4c(F)cccc4F)=N3)c(F)c2)OC1(C)C` (stereo not drawn) [II-2, 5-(2,6-difluorophenyl)-2-[2-fluoro-4-(4,4,5,5-tetramethyl-1,3,2-dioxaborolan-2-yl)phenyl]-3,4-dihydro-2H-pyrrole], the chromatographic logP in series [1] (setting [7]) amounted to 4.88.

As to `CC(=O)NC(CCC(=O)c1c(F)cccc1F)c1ccc(Br)cc1F` (stereo not drawn) [N-[1-(4-bromo-2-fluorophenyl)-4-(2,6-difluorophenyl)-4-oxobutyl]acetamide], the chromatographic logP in series [1] (setting [7]) came to 2.74.

Take `CC(=O)NC(CCC(=O)c1ccccc1C)c1ccc(Br)cc1` (stereo not drawn) [N-[1-(4-bromophenyl)-4-(2-methylphenyl)-4-oxobutyl]acetamnide]: the chromatographic logP in series [1] (setting [7]) was 3.33.

As for `O=C(c1c(F)cccc1F)C1CC1c1ccc(Br)cc1F` (stereo not drawn) [[2-(4-bromo-2-fluorophenyl)cyclopropyl](2,6-difluorophenyl)methanone], the chromatographic logP in series [1] (setting [7]) is 4.31.

The record behind these values is patent US7297797B2, “Pyrrolines” (Bayer CropScience AG, priority 2002, dated 2007).
